From patent publication US20020128268A1, “Use of 2-hydrazino-1,3-thiazoles as antioxidants” (priority 2000, published 2002)

What was measured:
[1] = DPPH (1,1-diphenyl-2-picryl-hydrazyl) test for eliminating free radicals; type: biochemical; details: effective relative concentration c(test compound)/c(DPPH) at which the DPPH free radical was 50% eliminated; methanol, absorption at 515 nm
Method: The activity of the exemplary compounds as free radical-capturing agents was compared with that of conventional free radical-capturing agents. In this connection, use was made of the DPPH (1,1-diphenyl-2-picryl-hydrazyl) test for eliminating free radicals.
DPPH was dissolved in methanol to give a concentration of 100 μmol/l. A series of dilutions of the exemplary compounds, Vitamin C, α-tocopherol and dibutylhydroxytoluene were prepared in methanol. Methanol served as the control. 2500 μl of the DPPH solution were mixed with 500 μl of each test solution and the decrease in the absorption at 515 nm was read until the decrease was less than 2% per hour. The activity of the test substances as free radical-capturing agents was calculated using the following equation:
Activity as free radical-capturing agent (%)=100—(absorption of the test compounds)/(absorption of the control)×100.
For each test compound, the effective relative concentration EC50 (based on the concentration of DPPH which was initially present, EC=c (test compound)/c(DPPH)) of a test compound, i.e. at which the DPPH free radical was 50% eliminated, was calculated from the activity as a free radical-capturing agent (%) in a series of dilutions of test compounds.

[2] = Rancimat accelerated autooxidation of lipids by air, soyabean oil; details: antioxidative index = IP(with test solution)/IP(control sample)
Method: (§1) The activity of the exemplary compounds as antioxidants was compared with that of conventional antioxidants. The accelerated autooxidation of lipids by air with or without antioxidant, as measured using the Rancimat appliance (Rancimat is a registered trademark belonging to Metrohm AG, Herisau, Switzerland) was used as the test system. The exemplary compounds, Vitamin C, α-tocopherol and dibutyihydroxytoluene were dissolved in methanol or acetone, and 100 μl of the respective test solution were added to a previously prepared oil sample weighing 3 g. Solvent only was added to a control sample. A constant, dry stream of air (20 I/h) was blown through the heated oil sample containing the test solution, and the volatile oxidation products (principally short-chain fatty acids such as formic and acetic acid) were collected in a recipient vessel containing water. The conductivity of this aqueous solution was measured and documented continuously. In this connection, the oxidation of (unsaturated) fats proceeds only very slowly for a while and then suddenly increases rapidly. The time which elapses until the increase is termed the induction period (IP). The antioxidative index (AOI) was obtained using the following equation: AOI=IP(with test solution)/IP(control sample). The results for the experiments in soyabean oil at 100° C. and, at 80° C., in squalene, which was purified on alumina type N and stabilized with 1 ppm α-tocopherol, are shown in Table 6: […]

[3] = Rancimat accelerated autooxidation of lipids by air, squalene; details: antioxidative index = IP(with test solution)/IP(control sample), squalene purified on alumina type N and stabilized with 1 ppm α-tocopherol
Method: as §1

SMILES | EC50/ (mol/mol) [1] [mol/mol] | AOl in Soyabean oil at 100° C. containing 0.05% test substance [2] | AOl in squalene at 80° C. containing 0.005% test substance [3]
NNc1nc2cc(S(=O)(=O)O)ccc2s1 [2-Hydrazino-1,3-benzothiazole-5-sulfonic acid] | 0.17 | – | –
NNc1nc2ccccc2s1 [2-Hydrazino-1,3-benzothiazole] | 0.15 | 17 | 97
NNc1nc(-c2ccccc2)cs1 [2-Hydrazino-4-phenyl-1,3-thiazole] | 0.13 | 8.5 | 13
NNc1nnc(-c2ccc(F)cc2)s1 [2-Hydrazino-5-(4-fluorophenyl)-1,3,4-thiadiazole] | 0.14 | 15 | 38
NNc1nc2cccnc2s1 [2-Hydrazino-thiazolo-[5,4-b]pyridine] | 0.10 | – | 60
COc1cc2nc(NN)sc2cc1OC [5,6-Dimethoxy-2-hydrazino-1,3-benzothiazole] | 0.12 | 4.1 | 24
COc1ccc2nc(NN)sc2c1 [6-Methoxy-2-hydrazino-1,3-benzothiazole] | – | 24 | 23
Cc1ccc2nc(NN)sc2c1 [6-Methyl-2-hydrazino-1,3-benzothiazole] | 0.28 | 2.4 | 67
CC(C)(C)c1ccc2nc(NN)sc2c1 [6-tert.-Butyl-2-hydrazino-1,3-benzothiazole] | 0.15 | 6 | 14
Cc1cc(C(C)(C)C)c(O)c(C(C)(C)C)c1 [Dibutylhydroxytoluene, reference compound] | 0.24 | 4.8 | 38
O=C1O[C@H]([C@@H](O)CO)C(O)=C1O [Vitamin C, reference compound] | 0.27 | 1.2 | 0.7
Cc1c(C)c2c(c(C)c1O)CC[C@@](C)(CCC[C@H](C)CCC[C@H](C)CCCC(C)C)O2 [α-Tocopherol, reference compound] | 0.25 | 5.1 | 39
